≈ marks a conversion by molar mass, not a printed value. Like-named read-outs stand apart in the source and are kept apart here.
Assays:
Ps. aeruginosa A-21213 = assay: MIC, tube dilution, Pseudomonas aeruginosa A21213; type: cell-based; details: Pseudomonas aeruginosa A21213; overnight 37° C.; read-out: Minimum Inhibitory Concentration (M.I.C.)
Description: (§1) Representative compounds of the present invention were subjected to in vitro antibiotic screening against a variety of microorganisms.

Ent. cloacae A-9656 = assay: MIC, tube dilution, Enterobacter cloacae A9656; type: cell-based; details: overnight 37° C., read-out: Minimum Inhibitory Concentration (M.I.C.)
Description: as §1

Str. faecalis A-20688 = assay: MIC, tube dilution, Streptococcus faecalis A20688; type: cell-based; details: Enterococcus faecalis, A20688, Str. faecalis A20688; overnight 37° C.; read-out: Minimum Inhibitory Concentration (M.I.C.)
Description: as §1

Ser. marcescens A-20019 = assay: MIC, tube dilution, Serratia marcescens A20019; type: cell-based; details: Serratia marcescens, A20019, Serratia marcescens A20019; overnight 37° C.; read-out: Minimum Inhibitory Concentration (M.I.C.)
Description: as §1

[1] = test system: Staph. aureus (Meth-Res) A-15097; assay: MIC, tube dilution, Staphylococcus aureus A15097 (Meth-Res); type: cell-based; details: Staphylococcus aureus, overnight 37° C.
Description: as §1

Pr. morganii A-15153 = assay: MIC, tube dilution, Proteus morganii A15153; type: cell-based; details: Morganella morganii, A15153, Proteus morganii A15153; overnight 37° C.; read-out: Minimum Inhibitory Concentration (M.I.C.)
Description: as §1

E. coli A-20341-1 = assay: MIC, tube dilution, Escherichia coli A20341-1; type: cell-based; details: Escherichia coli, A203411; E. coli A20341-1; overnight 37° C.; read-out: Minimum Inhibitory Concentration (M.I.C.)
Description: as §1

Pr. mirabilis A-9900 = assay: MIC, tube dilution, Proteus mirabilis A9900; type: cell-based; details: Proteus mirabilis, A9900, Proteus mirabilis A9900; overnight 37° C.; read-out: Minimum Inhibitory Concentration (M.I.C.)
Description: as §1

Str. pyogenes A-9604 = assay: MIC, tube dilution, Streptococcus pyogenes A9604; type: cell-based; details: overnight 37° C., Nutrient Broth; for MIC: Streptococcus pyogenes, A9604, Str. pyogenes A9604, read-out: Minimum Inhibitory Concentration (M.I.C.)
Description: as §1

Pr. vulgaris A-9716 = assay: MIC, tube dilution, Proteus vulgaris / Proteus mirabilis A9716; type: cell-based, Proteus vulgaris (name changed to Proteus mirabilis); details: Proteus vulgaris, overnight 37° C.
Description: as §1

[2] = test system: Staph. aureus A-9537 and 50% serum; assay: MIC, tube dilution, Staph. aureus A9537 + 50% serum; type: cell-based, Staphylococcus aureus; details: Staphylococcus aureus, overnight 37° C., read-out: Minimum Inhibitory Concentration (M.I.C.)
Description: as §1

[3] = test system: Staph. aureus (Pen-Res) A-9606; assay: MIC, tube dilution, Staphylococcus aureus A9606 (Pen-Res); type: cell-based; details: Staphylococcus aureus, overnight 37° C.
Description: as §1

[4] = test system: Klebsiella species A20468; assay: MIC, tube dilution, Klebsiella species A20468; type: cell-based; details: Klebsiella species (K. pneumoniae) A20468; overnight 37° C.; read-out: Minimum Inhibitory Concentration (M.I.C.)
Description: as §1

Ps. aeruginosa A-9843A = assay: MIC, tube dilution, Pseudomonas aeruginosa A9843A; type: cell-based; details: Pseudomonas aeruginosa, A9843A, read-out: Minimum Inhibitory Concentration (M.I.C.), Pseudomonas aeruginosa A9843A; overnight 37° C.
Description: as §1

Ent. cloacae A-9659 = assay: MIC, tube dilution, Enterobacter cloacae A9659; type: cell-based; details: Enterobacter cloacae, A9659, Enterobacter cloacae A9659; overnight 37° C.; read-out: Minimum Inhibitory Concentration (M.I.C.)
Description: as §1

K. pneumoniae A-15130 = assay: MIC, tube dilution, Klebsiella pneumoniae A15130; type: cell-based; details: Klebsiella pneumoniae, A15130, K. pneumoniae A15130; overnight 37° C.; read-out: Minimum Inhibitory Concentration (M.I.C.)
Description: as §1

E. coli A-15119 = assay: MIC, tube dilution, Escherichia coli A15119; type: cell-based; details: Escherichia coli, A15119, E. coli A15119; overnight 37° C.; read-out: Minimum Inhibitory Concentration (M.I.C.)
Description: as §1

Proteus rettgeri A21203 = assay: MIC, tube dilution, Proteus rettgeri A21203; type: cell-based; details: Providencia rettgeri, overnight 37° C., read-out: Minimum Inhibitory Concentration (M.I.C.)
Description: as §1

Staph. aureus A-9537 = assay: MIC, tube dilution, Staphylococcus aureus A9537; type: cell-based; details: overnight 37° C., Nutrient Broth; for MIC: Staphylococcus aureus, A9537, Staph. aureus A9537, read-out: Minimum Inhibitory Concentration (M.I.C.)
Description: as §1

Str. pneumoniae A-9585 = assay: MIC, tube dilution, Streptococcus pneumoniae A9585; type: cell-based; details: overnight 37° C., Nutrient Broth; for MIC: Streptococcus pneumoniae, A9585, Str. pneumoniae A9585, read-out: Minimum Inhibitory Concentration (M.I.C.)
Description: as §1

[5] = read-out: Minimum Inhibitory Concentration (M.I.C.), Staph. aureus A15097 (Meth-Res)
[6] = A9716, read-out: Minimum Inhibitory Concentration (M.I.C.), Proteus vulgaris / Proteus mirabilis A9716
[7] = read-out: Minimum Inhibitory Concentration (M.I.C.), Staph. aureus A9606 (Pen-Res)

Structure (SMILES) | MIC (Ps. aeruginosa A-21213) | MIC (Ent. cloacae A-9656; Enterobacter cloacae A9656) | MIC (Str. faecalis A-20688) | MIC (Ser. marcescens A-20019) | MIC [1, 5] | MIC (Pr. morganii A-15153) | MIC (E. coli A-20341-1) | MIC (Pr. mirabilis A-9900) | MIC (Str. pyogenes A-9604) | MIC (Pr. vulgaris A-9716; [6]) | MIC [2] | MIC [3, 7] | MIC [4] | MIC (Ps. aeruginosa A-9843A) | MIC (Ent. cloacae A-9659) | MIC (K. pneumoniae A-15130) | MIC (E. coli A-15119) | MIC (Proteus rettgeri A21203; Proteus rettgeri A21203) | MIC (Staph. aureus A-9537) | MIC (Str. pneumoniae A-9585) | also measured
CCCCC1=C(C(=O)[O-])N2C(=O)C[C@H]2S1.[Na+] [Preparation 24, Sodium 2-butylpenem-3-carboxylate] | 125 µg/mL | 63 µg/mL | 63 µg/mL | 32 µg/mL | 125 µg/mL | 16 µg/mL | > 125 µg/mL | 2 µg/mL | 1 µg/mL | 2 µg/mL | > 63 µg/mL | 4 µg/mL | > 125 µg/mL | 125 µg/mL | 63 µg/mL | 63 µg/mL | 16 µg/mL | 8 µg/mL | 0.13 µg/mL | 0.25 µg/mL | 
O=C([O-])C1=C(Cc2ccccc2)S[C@@H]2CC(=O)N12.[Na+] [Preparation 21, Sodium 2-Benzylpenem-3-carboxylate] | 125 µg/mL | 32 µg/mL | 32 µg/mL | 63 µg/mL | 32 µg/mL | 4 µg/mL | 125 µg/mL | 1 µg/mL |  | 2 µg/mL | > 63 µg/mL | 1 µg/mL | 125 µg/mL | 125 µg/mL | 63 µg/mL | 125 µg/mL | 4 µg/mL | 4 µg/mL |  |  | Minimum Inhibitory Concentration (M.I.C.) (Str. pyogenes A-9604; Str. pyogenes A9604): 8 µg/mL; Minimum Inhibitory Concentration (M.I.C.) (Staph. aureus A-9537; Staph. aureus A9537): .06 µg/mL; Minimum Inhibitory Concentration (M.I.C.) (Str. pneumoniae A-9585; Str. pneumoniae A9585): 2 µg/mL
O=C([O-])C1=C(Cc2ccco2)S[C@@H]2CC(=O)N12.[Na+] [Preparation 18, Sodium 2-(2-Furylmethyl)penem-3-carboxylate] | > 125 µg/mL | 32 µg/mL | 63 µg/mL | 32 µg/mL | 16 µg/mL | 8 µg/mL | > 125 µg/mL | 2 µg/mL | 0.25 µg/mL | 2 µg/mL | > 63 µg/mL | 1 µg/mL | > 125 µg/mL | > 125 µg/mL | 16 µg/mL | 32 µg/mL | 2 µg/mL | 4 µg/mL | 0.5 µg/mL | 0.06 µg/mL | 
O=C(O)C1=C(c2cscn2)SC2CC(=O)N12 (stereo not shown) [Preparation 27, 2-(4'-Thiazolyl)penem-3-carboxylic Acid] | 125 µg/mL (≈ 492 µM) |  | 4 µg/mL (≈ 15.7 µM) | 63 µg/mL (≈ 248 µM) |  | 32 µg/mL (≈ 126 µM) | 125 µg/mL (≈ 492 µM) | 4 µg/mL (≈ 15.7 µM) | 0.25 µg/mL (≈ 0.983 µM) |  | > 63 µg/mL |  | > 125 µg/mL | 125 µg/mL (≈ 492 µM) | 125 µg/mL (≈ 492 µM) | 125 µg/mL (≈ 492 µM) | 8 µg/mL (≈ 31.5 µM) |  | 0.5 µg/mL (≈ 1.97 µM) | 0.13 µg/mL (≈ 0.511 µM) | MIC (Ent. cloacae A-9656; Enterobacter cloacae, A9656, Enterobacter cloacae A9656): 63 µg/mL (≈ 248 µM); MIC ([1]; Staph. aureus A15097 (Meth-Res), read-out: Minimum Inhibitory Concentration (M.I.C.)): 8 µg/mL (≈ 31.5 µM); MIC (Pr. vulgaris A-9716; A9716, Proteus vulgaris / Proteus mirabilis A9716, read-out: Minimum Inhibitory Concentration (M.I.C.)): 4 µg/mL (≈ 15.7 µM); MIC ([3]; Staph. aureus A9606 (Pen-Res), read-out: Minimum Inhibitory Concentration (M.I.C.)): 8 µg/mL (≈ 31.5 µM); MIC (Proteus rettgeri A21203; A21203, Proteus rettgeri A21203): 16 µg/mL (≈ 62.9 µM)
Cc1cc(CC2=C(C(=O)O)N3C(=O)CC3S2)on1 (stereo not shown) [Example 20] | 125 µg/mL (≈ 469 µM) | > 125 µg/mL | > 125 µg/mL | > 125 µg/mL | > 125 µg/mL | 125 µg/mL (≈ 469 µM) | > 125 µg/mL | > 125 µg/mL | 63 µg/mL (≈ 237 µM) | 125 µg/mL (≈ 469 µM) | > 63 µg/mL | > 125 µg/mL | > 125 µg/mL | 125 µg/mL (≈ 469 µM) | > 125 µg/mL | > 125 µg/mL | > 125 µg/mL | 125 µg/mL (≈ 469 µM) | > 125 µg/mL | 8 µg/mL (≈ 30 µM) | 

From patent US4272437A, “Antibacterial agents, and 4-thio azetidinone intermediates” (priority 1979, dated 1981)
